# Data: PubChem BioAssay (NCI)
#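 Grown in 96-well plates, cells were treated for 48 hours with each compound at five concentrations. Insufficient inhibition: endpoint recorded as highest concentration tested. Here, GI50 denotes the concentration required for 50% inhibition of growth. TGI denotes the concentration required for complete inhibition of growth.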
# Experiments:
# Assay in all cases: NCI anticancer screen, dose series, 48 h
# SF-268 CNS = test system: SF-268 CNS
# SN12C renal = test system: SN12C renal
# LOX IMVI melanoma = test system: LOX IMVI melanoma
# RPMI-8226 leukemia = test system: RPMI-8226 leukemia
# CCRF-CEM leukemia = test system: CCRF-CEM leukemia
# DU-145 prostate = test system: DU-145 prostate
# MDA-N = test system: MDA-N
# MALME-3M melanoma = test system: MALME-3M melanoma
# HOP-62 NSCLC = test system: HOP-62 NSCLC
# OVCAR-5 ovarian = test system: OVCAR-5 ovarian
# SNB-19 CNS = test system: SNB-19 CNS
# M14 melanoma = test system: M14 melanoma
# NCI-H23 lung = test system: NCI-H23 lung
# HCT-15 colon = test system: HCT-15 colon
# NCI-H226 lung = test system: NCI-H226 lung
# UACC-62 melanoma = test system: UACC-62 melanoma
# HCT-116 colon = test system: HCT-116 colon
# MCF7 breast = test system: MCF7 breast
# OVCAR-8 ovarian = test system: OVCAR-8 ovarian
# PC-3 prostate = test system: PC-3 prostate
# K-562 leukemia = test system: K-562 leukemia
# SK-MEL-28 melanoma = test system: SK-MEL-28 melanoma
# IGROV1 ovarian = test system: IGROV1 ovarian
# NCI/ADR-RES ovarian = test system: NCI/ADR-RES ovarian
# UO-31 renal = test system: UO-31 renal
# A498 renal = test system: A498 renal
# SK-OV-3 ovarian = test system: SK-OV-3 ovarian
# SF-295 CNS = test system: SF-295 CNS
# MDA-MB-435 = test system: MDA-MB-435
# HT29 colon = test system: HT29 colon
# NCI-H522 lung = test system: NCI-H522 lung
# TK-10 renal = test system: TK-10 renal
# HS 578T breast = test system: HS 578T breast
# ACHN renal = test system: ACHN renal
# KM12 colon = test system: KM12 colon
# SK-MEL-5 melanoma = test system: SK-MEL-5 melanoma
# 786-0 renal = test system: 786-0 renal
# OVCAR-3 ovarian = test system: OVCAR-3 ovarian
# MOLT-4 leukemia = test system: MOLT-4 leukemia
# SK-MEL-2 melanoma = test system: SK-MEL-2 melanoma
# MDA-MB-231 breast = test system: MDA-MB-231 breast
# SW-620 colon = test system: SW-620 colon
# EKVX NSCLC = test system: EKVX NSCLC
# HOP-92 NSCLC = test system: HOP-92 NSCLC
# A549 NSCLC = test system: A549 NSCLC
# COLO 205 colon = test system: COLO 205 colon
# U251 CNS = test system: U251 CNS
# SNB-75 CNS = test system: SNB-75 CNS
# SF-539 CNS = test system: SF-539 CNS
# CAKI-1 renal = test system: CAKI-1 renal
# OVCAR-4 ovarian = test system: OVCAR-4 ovarian
# RXF 393 renal = test system: RXF 393 renal
# SR leukemia = test system: SR leukemia
# BT-549 breast = test system: BT-549 breast
# NCI-H460 lung = test system: NCI-H460 lung
# HL-60(TB) leukemia = test system: HL-60(TB) leukemia
# HCC-2998 colon = test system: HCC-2998 colon
# UACC-257 melanoma = test system: UACC-257 melanoma
# T-47D breast = test system: T-47D breast
structure (smiles),measurement,setting,value
CCOC(=O)CCC(NC(=O)c1ccc(CNc2nc3ccccc3nc2C(=O)OCC)cc1)C(=O)OCC (configuration not stated),TGI,SF-268 CNS,> 100 µM
same,TGI,SN12C renal,> 100 µM
same,TGI,LOX IMVI melanoma,> 100 µM
same,TGI,RPMI-8226 leukemia,> 100 µM
same,TGI,CCRF-CEM leukemia,> 100 µM
same,TGI,DU-145 prostate,> 100 µM
same,TGI,MDA-N,> 100 µM
same,TGI,MALME-3M melanoma,> 100 µM
same,TGI,HOP-62 NSCLC,> 100 µM
same,TGI,OVCAR-5 ovarian,> 100 µM
same,TGI,SNB-19 CNS,> 100 µM
same,TGI,M14 melanoma,> 100 µM
same,TGI,NCI-H23 lung,> 100 µM
same,TGI,HCT-15 colon,> 100 µM
same,TGI,NCI-H226 lung,> 100 µM
same,TGI,UACC-62 melanoma,> 100 µM
same,TGI,HCT-116 colon,> 100 µM
same,TGI,MCF7 breast,> 100 µM
same,TGI,OVCAR-8 ovarian,> 100 µM
same,TGI,PC-3 prostate,> 100 µM
same,TGI,K-562 leukemia,> 100 µM
same,TGI,SK-MEL-28 melanoma,> 100 µM
same,TGI,IGROV1 ovarian,> 100 µM
same,TGI,NCI/ADR-RES ovarian,> 100 µM
same,TGI,UO-31 renal,> 100 µM
same,TGI,A498 renal,> 100 µM
same,TGI,SK-OV-3 ovarian,> 100 µM
same,TGI,SF-295 CNS,> 100 µM
same,TGI,MDA-MB-435,50.3 µM
same,TGI,HT29 colon,> 100 µM
same,TGI,NCI-H522 lung,> 100 µM
same,TGI,TK-10 renal,> 100 µM
same,TGI,HS 578T breast,> 100 µM
same,TGI,ACHN renal,> 100 µM
same,TGI,KM12 colon,> 100 µM
same,TGI,SK-MEL-5 melanoma,> 100 µM
same,TGI,786-0 renal,> 100 µM
same,TGI,OVCAR-3 ovarian,> 100 µM
same,TGI,MOLT-4 leukemia,> 100 µM
same,TGI,SK-MEL-2 melanoma,> 100 µM
same,TGI,MDA-MB-231 breast,> 100 µM
same,TGI,SW-620 colon,> 100 µM
same,TGI,EKVX NSCLC,> 100 µM
same,TGI,HOP-92 NSCLC,> 100 µM
same,TGI,A549 NSCLC,> 100 µM
same,TGI,COLO 205 colon,> 100 µM
same,TGI,U251 CNS,> 100 µM
same,TGI,SNB-75 CNS,> 100 µM
CC(=O)N1C(=O)CC2(N=C(C)CC2=O)c2ccccc21 (configuration not stated),TGI,SF-268 CNS,> 10 µM
same,TGI,SN12C renal,> 10 µM
same,TGI,SF-539 CNS,> 10 µM
same,TGI,CAKI-1 renal,> 10 µM
same,TGI,DU-145 prostate,> 10 µM
same,TGI,MDA-N,> 10 µM
same,TGI,OVCAR-5 ovarian,> 10 µM
same,TGI,SNB-19 CNS,> 10 µM
same,TGI,M14 melanoma,> 10 µM
same,TGI,NCI-H23 lung,> 10 µM
same,TGI,HCT-15 colon,> 10 µM
same,TGI,NCI-H226 lung,> 10 µM
same,TGI,HCT-116 colon,> 10 µM
same,TGI,OVCAR-8 ovarian,> 10 µM
same,TGI,PC-3 prostate,> 10 µM
same,TGI,SK-MEL-28 melanoma,> 10 µM
same,TGI,IGROV1 ovarian,> 10 µM
same,TGI,NCI/ADR-RES ovarian,> 10 µM
same,TGI,UO-31 renal,> 10 µM
same,TGI,A498 renal,> 10 µM
same,TGI,SF-295 CNS,> 10 µM
same,TGI,OVCAR-4 ovarian,> 10 µM
same,TGI,MDA-MB-435,> 10 µM
same,TGI,HT29 colon,> 10 µM
same,TGI,TK-10 renal,> 10 µM
same,TGI,ACHN renal,> 10 µM
same,TGI,KM12 colon,> 10 µM
same,TGI,SK-MEL-5 melanoma,> 10 µM
same,TGI,OVCAR-3 ovarian,> 10 µM
same,TGI,RXF 393 renal,> 10 µM
same,TGI,MDA-MB-231 breast,> 10 µM
same,TGI,SW-620 colon,> 10 µM
same,TGI,EKVX NSCLC,> 10 µM
same,TGI,HOP-92 NSCLC,> 10 µM
same,TGI,A549 NSCLC,> 10 µM
same,TGI,COLO 205 colon,> 10 µM
same,TGI,U251 CNS,> 10 µM
same,TGI,SNB-75 CNS,> 10 µM
O=c1c2cc(Cl)ccc2oc2ccc(OCCCCCN3CCCCC3)cc12,GI50,SF-268 CNS,5.28 µM
same,TGI,SF-268 CNS,12.2 µM
same,GI50,SN12C renal,5.59 µM
same,TGI,SN12C renal,11.9 µM
same,GI50,SF-539 CNS,4.21 µM
same,TGI,SF-539 CNS,10.6 µM
same,GI50,LOX IMVI melanoma,0.967 µM
same,TGI,LOX IMVI melanoma,2.12 µM
same,GI50,RPMI-8226 leukemia,3.6 µM
same,TGI,RPMI-8226 leukemia,12.4 µM
same,GI50,CAKI-1 renal,3.24 µM
same,TGI,CAKI-1 renal,9.84 µM
same,GI50,CCRF-CEM leukemia,3.92 µM
same,TGI,CCRF-CEM leukemia,11.3 µM
same,GI50,SR leukemia,1.47 µM
same,TGI,SR leukemia,5.47 µM
same,GI50,DU-145 prostate,6.4 µM
same,TGI,DU-145 prostate,12.7 µM
same,GI50,BT-549 breast,6.26 µM
same,TGI,BT-549 breast,12.8 µM
same,GI50,MALME-3M melanoma,6.86 µM
same,TGI,MALME-3M melanoma,14.1 µM
same,GI50,HOP-62 NSCLC,7.03 µM
same,TGI,HOP-62 NSCLC,14.4 µM
same,GI50,OVCAR-5 ovarian,5.17 µM
same,TGI,OVCAR-5 ovarian,11.2 µM
same,GI50,SNB-19 CNS,6.83 µM
same,TGI,SNB-19 CNS,13.5 µM
same,GI50,M14 melanoma,1.17 µM
same,TGI,M14 melanoma,2.84 µM
same,GI50,NCI-H23 lung,5.37 µM
same,TGI,NCI-H23 lung,12 µM
same,GI50,HCT-15 colon,1.26 µM
same,TGI,HCT-15 colon,3.45 µM
same,GI50,NCI-H226 lung,8.74 µM
same,TGI,NCI-H226 lung,18.6 µM
same,GI50,UACC-62 melanoma,1.01 µM
same,TGI,UACC-62 melanoma,2.06 µM
same,GI50,NCI-H460 lung,1.73 µM
same,TGI,NCI-H460 lung,5.55 µM
same,GI50,HCT-116 colon,1.75 µM
same,TGI,HCT-116 colon,6.8 µM
same,GI50,HL-60(TB) leukemia,6.24 µM
same,TGI,HL-60(TB) leukemia,15.4 µM
same,GI50,MCF7 breast,5.24 µM
same,TGI,MCF7 breast,14.6 µM
same,GI50,OVCAR-8 ovarian,6.09 µM
same,TGI,OVCAR-8 ovarian,14.2 µM
same,GI50,PC-3 prostate,6.05 µM
same,TGI,PC-3 prostate,12.7 µM
same,GI50,K-562 leukemia,1.76 µM
same,TGI,K-562 leukemia,7.55 µM
same,GI50,SK-MEL-28 melanoma,1.09 µM
same,TGI,SK-MEL-28 melanoma,2.66 µM
same,GI50,IGROV1 ovarian,6.77 µM
same,TGI,IGROV1 ovarian,14.4 µM
same,GI50,NCI/ADR-RES ovarian,5.47 µM
same,TGI,NCI/ADR-RES ovarian,24.8 µM
same,GI50,UO-31 renal,3.98 µM
same,TGI,UO-31 renal,10.4 µM
same,GI50,A498 renal,6.28 µM
same,TGI,A498 renal,12.8 µM
same,GI50,SK-OV-3 ovarian,6.96 µM
same,TGI,SK-OV-3 ovarian,13.4 µM
same,GI50,SF-295 CNS,6.62 µM
same,TGI,SF-295 CNS,13.5 µM
same,GI50,HCC-2998 colon,8.55 µM
same,TGI,HCC-2998 colon,16.9 µM
same,GI50,OVCAR-4 ovarian,5.5 µM
same,TGI,OVCAR-4 ovarian,11.9 µM
same,GI50,MDA-MB-435,1.02 µM
same,TGI,MDA-MB-435,2.37 µM
same,GI50,HT29 colon,1.27 µM
same,TGI,HT29 colon,3.31 µM
same,GI50,NCI-H522 lung,3.48 µM
same,TGI,NCI-H522 lung,10.4 µM
same,GI50,TK-10 renal,8.06 µM
same,TGI,TK-10 renal,15 µM
same,GI50,HS 578T breast,6.16 µM
same,TGI,HS 578T breast,15.1 µM
same,GI50,ACHN renal,5.28 µM
same,TGI,ACHN renal,11.2 µM
same,GI50,KM12 colon,2.68 µM
same,TGI,KM12 colon,9 µM
same,GI50,SK-MEL-5 melanoma,0.892 µM
same,TGI,SK-MEL-5 melanoma,1.91 µM
same,GI50,786-0 renal,5.91 µM
same,TGI,786-0 renal,12.5 µM
same,GI50,OVCAR-3 ovarian,5.47 µM
same,TGI,OVCAR-3 ovarian,11.5 µM
same,GI50,RXF 393 renal,1.86 µM
same,TGI,RXF 393 renal,7.2 µM
same,GI50,UACC-257 melanoma,1.3 µM
same,TGI,UACC-257 melanoma,3.2 µM
same,GI50,MOLT-4 leukemia,3.16 µM
same,TGI,MOLT-4 leukemia,10.7 µM
same,GI50,SK-MEL-2 melanoma,2.09 µM
same,TGI,SK-MEL-2 melanoma,7.96 µM
same,GI50,T-47D breast,7.21 µM
same,TGI,T-47D breast,17 µM
same,GI50,MDA-MB-231 breast,3.15 µM
same,TGI,MDA-MB-231 breast,9.77 µM
same,GI50,SW-620 colon,1.55 µM
same,TGI,SW-620 colon,5.09 µM
same,GI50,EKVX NSCLC,6.25 µM
same,TGI,EKVX NSCLC,13.2 µM
same,GI50,HOP-92 NSCLC,3.55 µM
same,TGI,HOP-92 NSCLC,10.3 µM
same,GI50,A549 NSCLC,4.78 µM
same,TGI,A549 NSCLC,10.9 µM
same,GI50,COLO 205 colon,1 µM
same,TGI,COLO 205 colon,2.29 µM
same,GI50,U251 CNS,6.12 µM
same,TGI,U251 CNS,12.7 µM
same,GI50,SNB-75 CNS,7.44 µM
same,TGI,SNB-75 CNS,14 µM
